Assay results from patent US10544185B2 (Suzhou Zelgen Biopharmaceuticals Co., Ltd., priority 2015, dated 2020).

Target: T1, farnesoid X receptor (FXR) (Homo sapiens, UniProt Q96RI1)
T1 sequence (Q96RI1 1-486): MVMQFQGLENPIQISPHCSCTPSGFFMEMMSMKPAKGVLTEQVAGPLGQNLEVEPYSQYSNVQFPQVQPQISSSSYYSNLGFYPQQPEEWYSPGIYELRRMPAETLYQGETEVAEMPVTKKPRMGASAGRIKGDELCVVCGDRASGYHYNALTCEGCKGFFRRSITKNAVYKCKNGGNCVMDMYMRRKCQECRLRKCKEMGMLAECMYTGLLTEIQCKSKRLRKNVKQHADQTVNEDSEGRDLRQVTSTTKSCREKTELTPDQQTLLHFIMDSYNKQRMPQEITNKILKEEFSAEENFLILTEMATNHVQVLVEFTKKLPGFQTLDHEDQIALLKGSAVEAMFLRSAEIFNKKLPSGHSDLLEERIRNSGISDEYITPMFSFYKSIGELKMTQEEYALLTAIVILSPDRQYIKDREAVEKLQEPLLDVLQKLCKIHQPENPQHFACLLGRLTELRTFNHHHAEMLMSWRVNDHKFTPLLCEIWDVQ
Experiment: Recruitment Coactivator Assay (AlphaScreen) for FXR activation
Format: biochemical
Conditions: read-out: activating activity (EC50) for FXR
Method: The farnesoid X receptor (FXR) activation of the compounds of the present invention is determined by Recruitment Coactivator Assay, i.e. AlphaScreen. Specific in vitro pharmacodynamic evaluation experimental program has referred to the literature J Pharmacol Exp Ther 350:56-68, July 2014.

EC50: < 200 nM
Substance: 3α, 7[…]-Dihydroxy-6α-(Ethyl-d4)-5β-Cholan-24-Acid [Example 7]
